The subject of the test is C2C12 muscle cells. The experiment in a line: Analysis of glucose absorption (2-deoxyglucose) in differentiated C2C12 muscle cells. The test is classed as cell-based. The conditions noted are these: test materials 10 μM, times relative to control group. In short, it runs like this: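 Uptake of 0.2 μCi 2-deoxyglucose over 20 min, counted radiometrically in lysed cells. Before tracer, compounds (10 μM) were applied for 30 min to C2C12 cells differentiated 6 days in 1% serum and equilibrated 3 h in 5 mM glucose KRB.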
In the case of `CCSc1nc(NCCCOC(C)C)c2ccccc2n1` [Compound 33, (2-Ethylsulfanylquinazolino-4-yl)-(3-isopropoxypropyl)-amine], the Glucose absorption worked out at 1.2.
The figure for `CCSc1nc(NCCCN2CCCCC2C)c2ccccc2n1` (stereo not shown) [Compound 48, (2-Ethylsulfanylquinazolino-4-yl)-[3-(2-methyl-piperidino-1-yl)-propyl]-amine] is 1.0; for `OCCNc1nc(-c2ccncc2)nc2ccccc12` [Compound 258, 2-(2-Pyridino-4-ylquinazolino-4-ylamino)-ethanol] it is 1.3; for `CN1CCN(CCNc2nc(-c3ccccc3)nc3ccccc23)CC1` [Compound 158, [2-(4-Methylpiperazino-1-yl)-ethyl]-(2-phenylquinazolino-4-yl)-amine] it is 2.0.
`CCC(C)Nc1nc(-c2ccccc2)nc2ccccc12` (stereo not shown) [Compound 96, sec-Butyl-(2-phenylquinazolino-4-yl)-amine] yielded a Glucose absorption of 1.3.
For `c1ccc(-c2nc(NCc3ccc4c(c3)OCO4)c3ccccc3n2)cc1` [Compound 65, Benzo[1,3]dioxol-5-ylmethyl-(2-phenylquinazolino-4-yl)-amine] the value was 1.4; for `CCSc1nc(NC2CCCCC2)c2ccccc2n1` [Compound 27, Cyclohexyl-(2-ethylsulfanylquinazolino-4-yl)-amine], 1.0; for `c1ccc(-c2nc(NCc3cccc4ccccc34)c3ccccc3n2)cc1` [Compound 57, Naphthaleno-1-ylmethyl-(2-phenylquinazolino-4-yl)-amine], 1.0.
With `COc1ccc(CNc2nc(-c3ccccn3)nc3ccccc23)cc1` [Compound 225, (4-Methoxybenzyl)-(2-pyridino-2-ylquinazolino-4-yl)-amine], the Glucose absorption is 1.3.
For `c1ccc(Nc2nc(-c3ccccc3)nc3ccccc23)cc1` [Compound 69, Phenyl-(2-phenylquinazolino-4-yl)-amine] the value was 1.0; for `Clc1ccc(CNc2nc(-c3ccccc3)nc3ccccc23)cc1` [Compound 88, (4-Chlorobenzyl)-(2-phenylquinazolino-4-yl)-amine], 1.1.
The figure for `OCCNc1nc(Cc2ccccc2)nc2ccccc12` [Compound 222, 2-(2-Benzylquinazolino-4-ylamino)-ethanol] is 1.2; for `COc1cccc(CNc2nc(-c3ccccc3)nc3ccccc23)c1OC` [Compound 93, (2,3-Dimethoxybenzyl)-(2-phenylquinazolino-4-yl)-amine] it is 1.1; for `c1cncc(-c2nc(NCc3cccc4ccccc34)c3ccccc3n2)c1` [Compound 241, Naphthaleno-1-ylmethyl-(2-pyridino-3-ylquinazolino-4-yl)-amine] it is 1.2.
For `Clc1ccc(-c2nc(NCc3cccc4ccccc34)c3ccccc3n2)cc1` [Compound 265, [2-(4-Chlorophenyl)-quinazolino-4-yl]-naphthaleno-1-ylmethylamine] the value was 1.1; for `CCCCCCCCCCCCCCCCNc1nc(SCC)nc2ccccc12` [Compound 43, (2-Ethylsulfanylquinazolino-4-yl)-hexadecylamine], 1.1.
`c1ccc(-c2nc(NC3CCCC3)c3ccccc3n2)cc1` [Compound 95, Cyclopentyl-(2-phenylquinazolino-4-yl)-amine] came in with a Glucose absorption of 1.2.
For `FC(F)(F)c1cccc(CNc2nc(Cc3ccccc3)nc3ccccc23)c1` [Compound 214, (2-Benzylquinazolino-4-yl)-(3-trifluoromethylbenzyl)-amine] the value was 2.0.
For `c1ccc(CNc2nc(-c3cccnc3)nc3ccccc23)cc1` [Compound 235, Benzyl-(2-pyridino-3-ylquinazolino-4-yl)-amine] the value was 1.2.

Source of the values: patent publication US20080207614A1, “QUINAZOLINE DERIVATIVES FOR THE TREATMENT AND PREVENTION OF DIABETES AND OBESITY” (SK CHEMICALS CO., LTD., priority 2004, published 2008).
